We go through ten substances from publication PMC3350483, “Versatile Toolbox for High Throughput Biochemical and Functional Studies with Fluorescent Fusion Proteins” (PLoS ONE, 2012).

The test system of assay [1] is GFP-Cbx1. The experiment in a line: In vitro histone-tail peptide binding assay on GFP-multiTrap. Details: species or system mouse. Conditions: for Binding of GFP-Cbx1 to histone-tail peptide (binding ratios, Figure 2A): 0.15 µM TAMRA-labeled peptide per well, RT 20 min. As for the experimental part: In the next assay we determined whether this approach is also feasible to quantify binding affinities between GFP-proteins and peptides or DNA. First, we analyzed histone-tail peptide binding specificities of the chromobox homolog 1, Cbx1, fused with a N-terminal GFP-tag using the GFP-multiTrap. GFP-Cbx1 was purified from mammalian cell lysate, as described above, and the bound protein was incubated with TAMRA-labeled histone-tail peptides. A set of 20 different histone-tail peptides (Table 1) was used in technical triplicates in parallel and GFP served as negative control (GFP data is not shown). After removal of unbound substrate the amounts of protein and histone-tail peptide were determined by fluorescence intensity measurements using a micro plate reader. Binding ratios were calculated by dividing the concentration of bound histone-tail peptide by the concentration of GFP fusion (Figure 2A). […] In addition to fluorescent quantification via a micro plate reader, we scanned the TAMRA signals using a Typhoon scanner (Figure 2B). […] These differences could result from different sensitivities of both methods. […] We incubated GFP-Cbx1 with TAMRA-labeled H3K9me3 in parallel with either biotinylated H3K9me3 or H3K9ac histone-tail peptides. […] In contrast, we could not detect a significant difference in binding ratios between di- and trimethylated H3K9 histone tail peptides using a micro plate reader (Figure 2A). One explanation could be the use of different expression systems. While the binding ratios for the HP1β chromo domain were determined using bacterially expressed protein we used a fluorescent fusion protein derived from mammalian cells. […] To determine the binding affinity of GFP-Cbx1 to H3K9me3, we varied the input amount of histone-tail peptide. We plotted the amount of bound histone-tail peptide as a function of total peptide and fitted the values using GraphPad Prism and nonlinear regression (Figure 2D). The amount of bound H3K9me3 histone-tail peptide increases linearly and saturates at approximately 500 nM of input peptide. […] Here, the input amount of protein/substrate was measured in solution, whereas the bound fraction represents one value on the 96-well surface.
For purification, 100 µL or 50 µL precleared cellular lysate for full-area plates or half-area plates, respectively, was added per well and incubated for 2 hours at 4°C on a GFP-multiTrap plate by continuous shaking. After removing the supernatant, wells were washed twice with 100 µL of washing buffer (WB; 20 mM Tris-HCl pH 7.5, 100–300 mM NaCl, 0.5 mM EDTA) and 100 µL of IP or dilution buffer was added for measurement. The amounts of bound protein were determined by fluorescence intensity measurements with a Tecan Infinite M1000 plate reader (Tecan, Austria). Wavelengths for excitation and emission of GFP are 490±10 nm and 511±10 nm, for RFP are 586±5 nm and 608±10 nm and for YFP 525±5 nm and 538±5 nm, respectively. The concentration of proteins was calculated using calibration curves that were determined by measuring the fluorescence signal of known concentrations of purified GFP, RFP and YFP. […] Bound proteins were eluted with 300 mM Glycin pH 2.5 and subsequently buffered with 1 M Tris pH 7.5. Elution fractions were added to SDS-containing sample buffer (referred to as Bound (B)). Bound proteins were visualized by immunoblotting using the anti-GFP mouse monoclonal antibody (Roche, Germany).
The in vitro histone-tail binding assay was performed as described previously. After one-step purification of GFP fusion proteins the wells were blocked with 100 µL 3% milk solved in TBS-T (0.075% Tween) for 30 minutes at 4°C on a plate vortex, shaking gently. After blocking, the wells were equilibrated in 50 µL IP buffer supplemented with 0.05% Tween. […]

Assay [2] addresses HP1β chromo domain. The following applies: bacterially expressed protein; ref [11], [12]; read-out: binding affinities; cited from earlier work.
The target of assay [3] is GFP-Cbx1 (chromobox homolog 1 fused with an N-terminal GFP-tag) (mouse) (UniProt P83917). The experiment in a line: GFP-multiTrap plate binding assay, fluorescence read-out; GFP fusion held on the GFP-multiTrap 96-well plate, blocked with 3% milk; 0.15 µM TAMRA-labeled histone-tail peptide, 20 min at RT, IP buffer (20 mM Tris-HCl pH 7.5, 150 mM NaCl, 0.5 mM EDTA) with 0.05% Tween; ratio of bound peptide over GFP fusion by plate reader.
Sequence of UniProt P83917 (P83917 whole entry, the tested form may be a part): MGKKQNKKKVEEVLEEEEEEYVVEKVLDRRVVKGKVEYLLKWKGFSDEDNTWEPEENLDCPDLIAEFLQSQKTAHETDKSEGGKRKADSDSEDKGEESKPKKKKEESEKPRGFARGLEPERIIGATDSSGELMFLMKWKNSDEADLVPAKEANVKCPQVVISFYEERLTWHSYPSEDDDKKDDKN

Assay [4] relates to GFP-Cbx1. The experiment in a line: Competition assay between TAMRA-labeled H3K9me3 and biotinylated histone-tail peptides. The class given is binding, mouse. The following applies: biotinylated peptide added in parallel; Figure 2C; three independent experiments; **P<0.003. As for the experimental part: In the next assay we determined whether this approach is also feasible to quantify binding affinities between GFP-proteins and peptides or DNA. First, we analyzed histone-tail peptide binding specificities of the chromobox homolog 1, Cbx1, fused with a N-terminal GFP-tag using the GFP-multiTrap. GFP-Cbx1 was purified from mammalian cell lysate, as described above, and the bound protein was incubated with TAMRA-labeled histone-tail peptides. A set of 20 different histone-tail peptides (Table 1) was used in technical triplicates in parallel and GFP served as negative control (GFP data is not shown). After removal of unbound substrate the amounts of protein and histone-tail peptide were determined by fluorescence intensity measurements using a micro plate reader. Binding ratios were calculated by dividing the concentration of bound histone-tail peptide by the concentration of GFP fusion (Figure 2A). […] In addition to fluorescent quantification via a micro plate reader, we scanned the TAMRA signals using a Typhoon scanner (Figure 2B). […] In contrast, we could not detect a significant difference in binding ratios between di- and trimethylated H3K9 histone tail peptides using a micro plate reader (Figure 2A). […] While the binding ratios for the HP1β chromo domain were determined using bacterially expressed protein we used a fluorescent fusion protein derived from mammalian cells. […]

For assay [5], the target named is Cbx1 (UniProt P83917). The experiment in a line: TAMRA-peptide binding to GFP-multiTrap-immobilised GFP-Cbx1. The following applies: reference: H3K9me3 peptide; sites S10.
For assay [6], the target named is GFP-PBD (green fluorescent PCNA-binding domain of Dnmt1). The experiment in a line: GFP-multiTrap plate binding assay, fluorescence read-out; GFP fusion held on the GFP-multiTrap plate, blocked with 3% milk, incubated with HEK293T cellular extract holding the RFP fusion for 30 min at RT; molar ratio of bound RFP fusion over GFP fusion by plate reader.
The mark [7] stands for this setting: plate reader, three independent experiments.

For the substance “ART K QTARKSTGGKAPRKQLK [H3 (1–20), TAMRA-labeled unmodified histone H3 tail peptide, residues 1–20]”, the “Binding of Cbx1 with varied input amount of peptide (Figure 2D)” value in assay [1] (varied input of TAMRA-labeled peptide, plate reader, two independent experiments for H3) is recorded as “could not detect any binding”. Turning to “ARTKQTAR X2 S TGGKAPRKQLK [H3K9me2, TAMRA-labeled histone H3 tail peptide, dimethylated Lysine 9]”, the “Binding of GFP-Cbx1 to histone-tail peptide (binding ratios, Figure 2A)” value (from here on “Binding … (binding ratios, Figure 2A)”) in assay [1] (setting [7]) is reported as “preferentially binds”. Besides, the “TAMRA signals of bound peptide by Typhoon scanner (Figure 2B)” value in assay [1] (fluorescence scanner) was “detected TAMRA signals”. Further, the Kd in assay [2] is 7 µM. Regarding “ARTKQTAR X3 S TGGKAPRKQLK [H3K9me3, TAMRA-labeled histone H3 tail peptide, trimethylated Lysine 9]”, the “Binding … (binding ratios, Figure 2A)” value in assay [1] (setting [7]) is given as “preferentially binds”. Moreover, the “TAMRA signals of bound peptide by Typhoon scanner (Figure 2B)” value in assay [1] (fluorescence scanner) was “detected TAMRA signals”. Also, the “Preference in binding by fluorescence scanner” value in assay [1] (fluorescence scanner, no difference seen with micro plate reader) was “preference for tri- over dimethylated H3K9”. In assay [1] (varied input of TAMRA-labeled peptide, Figure 2D, nonlinear regression, three independent experiments), the “Input peptide at which bound histone-tail peptide saturates” value is “approximately 500 nM”. In addition, the Kd in assay [2] is 2.5 µM. In the case of “ARTKQTAR X3 Z2 TGGKAPRKQLK [H3K9me3S10p, TAMRA-labeled H3 tail peptide, trimethylated Lysine 9 and phosphorylated Serine 10]”, the “Binding … (binding ratios, Figure 2A)” value in assay [1] (setting [7]) was “prevents binding”.

Consider “H3 (1–20) histone-tail peptide, TAMRA-labeled”, for which the relative binding ratio (substrate/GFP fusion) in assay [3] stood at 0.0772.

Consider “H3K9me3 histone-tail peptide, TAMRA-labeled”, for which, in assay [3], the relative binding ratio (substrate/GFP fusion) stood at 0.572. With “biotinylated H3K9ac: biotinylated H3K9ac histone-tail peptide used as competitor”, in assay [4], the “Effect of competitor on binding of Cbx1 to TAMRA-labeled H3K9me3” value was “did not alter”. Still for that read-out and setting: the entry for “biotinylated H3K9me3: biotinylated H3K9me3 histone-tail peptide used as competitor” is “significantly decreased”. Consider “histone H3 1-20 (from UniProt P68431) H3K9me3S10p peptide”, for which the “binding against the reference” value in assay [5] is “lost”. Turning to mRFP, in assay [6], the relative binding ratio (substrate/GFP fusion) came out at 0.005.
